Data set [1] is described as follows: Cytotoxicity assay on L6-cells (Alamar Blue). The settings on record: rat, Cytotox L6, Cytotoxicity against rat myoblast cells (L6). A general note: Resazurin is reduced to fluorescent resorufin, in cell work by metabolically active cells.
Procedure: (§1) Tests were done in triplicate. IC50 values against the parasites as well as cytotoxic effects against rat myoblast (L6-cells) were determined by serial dilution and repeated twice.
(§2) After 68 h of incubation under humidified 5% CO2 atmosphere, 10 µl of the Alamar blue marker was added to all wells. The plates were incubated for an additional 2 h. […] The IC50S were calculated by Softmax Pro software (Molecular Devices Cooperation, Sunnyvale, CA). […] Cytotoxicity was measured against rat myoblast cells (Cytotox L6).
The test system of data set [2] is rat myoblast (L6-cells). Kind of data set: Cytotoxicity assay on L6-cells (Alamar Blue). The settings on record: read-out: Cytotox L6; Cytotoxicity against rat myoblast cells (L6).
Procedure: as §1, §2
The test system of data set [3] is intracellular Leishmania donovani (L.don. InMac). Description: Intracellular Leishmania donovani assay (L.don. InMac). The settings on record: In vitro inhibition. It is filed as cell-based. From the text: Tests were done in triplicate.

SMILES strings stand for the structures. Non-standard residues stand in square brackets, D forms with d. Residues, ends and D or L forms follow the SMILES beside them. *: point of attachment. Hexenoyl(2E,4S-Me) = CC[C@H](C)/C=C/C(=O)*; Leu(3R-OH) = CC(C)[C@@H](O)[C@H](N)C(=O)O; Gly(octyl) = CCCCCCCC[C@H](N)C(=O)O; X17 = C[C@@H](CN1CCOCC1)N*; Aib = CC(C)(N)C(=O)O; βAla = NCCC(=O)O

As to `CCCCCCCC[C@H](NC(=O)[C@@H]1CCCN1C(=O)/C=C/[C@@H](C)CC)C(=O)N[C@H](C(=O)NC(C)(C)C(=O)N[C@@H](CC(C)C)C(=O)N[C@@H](CC(C)C)C(=O)NC(C)(C)C(=O)NC(C)(C)C(=O)NCCC(=O)N[C@@H](C)CN1CCOCC1)[C@H](O)C(C)C` [Compound 5573, (2S)-N-[(1S,2R)-2-hydroxy-3-methyl-1-[(1-methyl-1-{[(1S)-3-methyl-1-{[(1S)-3-methyl-1-{[1-methyl-1-({1-methyl-1-[(2-{[(2S)-1-(morpholin-4-yl)propan-2-yl]carbamoyl}ethyl)carbamoyl]ethyl}carbamoyl)ethyl]carbamoyl}butyl]carbamoyl}butyl]carbamoyl}ethyl)carbamoyl]butyl]-2-{[(2S)-1-[(2E,4S)-4-methylhex-2-enoyl]pyrrolidin-2-yl]formamido}decanamide] ({Hexenoyl(2E,4S-Me)}-P[Gly(octyl)][Leu(3R-OH)][Aib]LL[Aib][Aib][βAla]-X17), in data set [1], the IC50 at 70 h amounted to 512 nM. The IC50 is 738 nM in data set [2] and 20.4 nM in data set [3].

The values above are taken from EP3345917A1, “ANTIPROTOZOAL COMPOUNDS” (Bacoba AG, priority 2017, dated 2018).
